Experimental data published in paper PMC2914301 (Cancer research, 2009).
“Also recorded” adds a separate entry of the source.

Tests used:
Panc-1 = assay: Morphologic apoptosis assay in Panc-1 cells; type: cell-based, Human
PH domain of PDK1 [1] = target: T1, PH domain of PDK1 (Homo sapiens, UniProt O15530); assay: SPR direct binding to PDK1 PH domain
T1 sequence (O15530 459-550 limits assumed): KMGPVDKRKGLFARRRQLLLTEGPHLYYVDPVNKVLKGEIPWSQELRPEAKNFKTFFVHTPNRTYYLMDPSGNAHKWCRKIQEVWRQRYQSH

phospho-Ser^241-PDK1 = assay: Western analysis of phospho-Ser241-PDK1 in BxPC-3 cells; type: cell-based, Human; details: at higher concentrations
GSK3β and p70S6K = assay: Western analysis of AKT downstream targets in BxPC-3 cells; type: cell-based, Human; details: Western blot
PH domain of PDK1 [2] = target: T1, PH domain of PDK1; assay: SPR competitive binding
[3] = Preliminary single-dose toxicity, i.p.; type: in vivo; details: single doses up to 250 mg/kg i.p.; preliminary studies
[4] = test system: BxPC-3 pancreatic cancer xenografts; assay: Antitumor activity against BxPC-3 xenografts in scid mice; type: in vivo; details: 125 mg/kg i.p. twice a day for 5 days
MiaPaCa-2 = assay: Morphologic apoptosis assay in MiaPaCa-2 cells; type: cell-based, Human

## CCCCCCCCCCCCc1ccc(S(=O)(=O)Nc2nncs2)cc1 [Compound 27, 4-dodecyl-N-(1,3,4-thiadiazol-2-yl) benzenesulfonamide]
Panc-1
  Apoptosis at 20 μmol/L: 40.0 ± 2.9%
PH domain of PDK1 [1]
  Kd: 90.1 µM
phospho-Ser^241-PDK1
  Effect on phosphorylation of PDK1 on Ser241 (in words): slightly affected
GSK3β and p70S6K
  Effect on GSK3β and p70S6K phosphorylation (in words): inhibited in a dose-dependent manner
PH domain of PDK1 [2]
  Ki: 5.5 µM
[3]
  Toxicity of single doses: no toxicity
[4]
  Antitumor activity: significant antitumor activity with cessation of tumor growth and even regression; also recorded: complete cessation of tumor growth and even some regression
MiaPaCa-2
  Apoptosis at 20 μmol/L: 31.3 ± 1.6%
